Measurements from US7172772B2, “Herbal composition for gastrointestinal disorders” (Council of Scientific & Industrial Research, priority 2003, dated 2007).
“And” between values parts separate entries of the source, which are not always exact repeats. Identical values can stand only once. Counter-ions that a name gives are not always drawn. Marks after values point to notes of the source that are not given here.

Tests used:
[1] = test system: castor oil-stimulated gastrointestinal transit in rats; test: Small intestinal transit, charcoal meal (Table 3); assay type: in vivo; conditions: 0.1 mg kg^−1 IP
Experimental: Animals were divided into four groups of six rats each and each animal was given orally 1 ml of charcoal meal (5% activated charcoal suspended in 1% CMC) 60 min after an oral dose of drugs or vehicle. Group I was administered with 1% CMC (10 ml kg^−1) and animals in the other groups received various formulations. Another group received atropine sulfate (0.1 mg kg^−1, IP) as standard drug. After 30 min animals were killed by cervical dislocation and the intestine was removed without stretching and placed lengthwise on moist filter paper. The length of the intestine (pyloric sphincter to caecum) and the distance travelled by the charcoal as a percentage of that length were evaluated for each animal, and group means were compared and expressed as percentage inhibition (Lutterodt, J. Ethnopharmacol. 25, 1989, 235–247). […] Therefore the dose dependent effect of the formulation was similar to the synthetic drug atropine. But long use of atropine completely blocks the secretions it is an adverse effect.

[2] = test system: human carcinoma cells of the naso-pharynx; conditions: cell culture; cited from earlier work
[3] = test system: castor oil induced diarrhea in rats; test: Castor oil induced diarrhea / defecation, total faecal matter over 4 h (Table 1); assay type: in vivo; conditions: 5.0 mg kg^−1 p.o.
Experimental: Groups of six mice each were placed individually in separate cages with filter papers at the bottom. Different doses of the extracts were administered orally to different groups. The non-specific antidiarrhoeal reference drug diphenoxylate HCl (5.0 mg kg^−1, p.o.) and 1% CMC ([…], p.o.) were administered to two groups and later served as controls (Melo et al, J. Pharm. Pharmacol. 40 (1988), […]). The total number of the faecal matter in each group was assessed every hour for the next 4 h. Percent reduction in the total number of faeces in the treated groups was obtained by comparison with control animals.
The method of Awouters et al. (J. Pharm. Pharmacol, 30, 1978, 41–45) as modified by Nwodo and Alumanah (J. Ethnopharmacol, 31, 1991, 395–398) was used. Briefly, rats fasted for 24 h were randomly allocated to five groups of six animals each. One group received 1% CMC (10 mL kg^−1, p.o.), other groups received orally the different dosage of drug extract. Another group given diphenoxylate HCl (5.0 mg kg^−1, p.o.) as suspension. After 60 min each animal was given with 2 ml of castor oil by orogastric cannula, and placed in a separate cage and observed for 4 h defecation. Transparent plastic dishes were placed beneath each cage and the characteristic diarrhoeal droppings were noted. The total number of the faecal matter in each group was assessed every hour for the next 4 h. […]

[4] = test system: indomethacin induced acute gastric ulcers in rats; test: Indomethacin induced acute gastric ulcers (Table 4); assay type: in vivo; conditions: 50 mg/kg
Experimental: To assess the efficacy of different formulations against the indomethacin induced gastric ulcer different doses (25–100 mg kg^−1, p.o.) of formulations were administered to groups of 10 mice for each dose, while one group of the same number of mice served as control and the
The results of Table 4 represents that there is a significant and dose dependent anti ulcer activity and percentage ratio ranges of protection from 27.03 to 75.38.

[5] = test system: cysteamine induced duodenal ulcers in rats; test: Cysteamine induced duodenal ulcers (Table 5); assay type: in vivo; conditions: 50 mg/kg
Description: The efficacy is compared with the known standard synthetic drug Ranitidine for treatment of. […] Where as the formulation F5 contains […]. indica, Cinamommum sp. and Buchanania lanzan.

CN1[C@@H]2CC[C@H]1CC(OC(=O)C(CO)c1ccccc1)C2.CN1[C@@H]2CC[C@H]1CC(OC(=O)C(CO)c1ccccc1)C2.O=S(=O)(O)O (some centres unmarked) [Atropine sulphate, atropine sulfate]
Mean distance travelled by charcoal [1]: 26.5 ± 2.6^b cm
Reduction (%) [1]: 68.33%

COc1cc2c3c(O)c1OCc1ccc(cc1)C[C@@H]1c4c(cc(OC)c(OC)c4Oc4ccc(cc4)CC3=NCC2)CCN1C [Cissampareine]
inhibitory activity against human carcinoma cells of the naso-pharynx [2]: significant and reproducible inhibitory activity

CCOC(=O)C1(c2ccccc2)CCN(CCC(C#N)(c2ccccc2)c2ccccc2)CC1 [Diphenoxylate HCl, diphenoxylate HCl]
Total no of faecal matter ([3]; counted over 4 h, six rats per group): 16
% Reduction (Inhibition) ([3]; vs control 1% CMC): 75.38%

CNC(=C[N+](=O)[O-])NCCSCc1ccc(CN(C)C)o1 [Ranitidine]
% Curative ratio [4]: 82.20%
Ulcer index [4]: 0.81 ± 0.01^b
% Protection [5]: 77% and 77.9%
Ulcer incidence % [5]: 20%
Ulcer incidence No [5]: 2/10
Ulcer score Total lesion area [5]: 1.06 ± 0.17^c mm^2
